Assays:
CYP1A2 [1] = test: CYP1A2 mRNA induction in primary dog hepatocytes; type: cell-based; details: 10 μM, 48 h, data not shown
Description: Rat hepatocytes were isolated in a perfusion procedure as described previously (Elliget and Kolaja, [1983]; Waring et al., [2001]). The beagle dog hepatocytes were isolated in the same manner, except for adjustment of flow rate and buffer volume to scale to liver size. Cells were plated at a seeding density of 1.0 × 10^6 cells per well on 6-well, collagen-type I coated plates (BD Biosciences, Bedford, MA) in hepatocyte plating medium (Celsis, Baltimore, MD). Cells were allowed to attach for 24 h in a 37°C humidified incubator with a 5% CO2 atmosphere and were dosed for 24 h (rat) or 48 h (dog) with vehicle control [0.1% DMSO (v/v)] or 10 μM A-998679 in fresh treatment media (Celsis hepatocyte incubation media) every 24 h. After the last incubation, cells were lysed in 1 ml of Qiazol (Qiagen) and stored at −80°C until RNA isolation. Cryopreserved human hepatocytes (donor designation Hu4198; Invitrogen Life Technologies, Carlsbad, CA) were thawed and plated according to the manufacturer's protocol and allowed to incubate for 24 h. […]
RNA samples were diluted with RNase-free molecular biology grade water to a concentration of 20 ng/μl total RNA. […] Results were analyzed by calculating the fold change of CYP1A1 and/or CYP1A2 mRNA levels normalized to 28S rRNA (ΔΔ Ct) in compound treated cells or tissues compared to vehicle levels. […]

Cyp1a1 = Cyp1a1 mRNA in rat small intestine (jejunum); type: in vivo
Description: (§1) All animal experiments were conducted in accordance with the Guiding Principles in the Use of Animals in Toxicology (http://www.toxicology.org/ai/air/air6.asp) and were approved by Abbott's Institutional Animal Care and Use Committee (IACUC). Male Sprague-Dawley rats [Crl:CD®(SD)IGS BR], weighing ~250 g at study initiation were obtained from Charles River Laboratories, Inc. (Wilmington, MA). Rats were housed singly in ventilated, stainless steel, wire-bottom hanging cages and fed non-certified Rodent Chow (Harlan Labs, Madison, WI), and water ad libitum and acclimated for at least 5 days after arrival. […] Serum clinical chemistry parameters were quantified using an Aeroset Clinical Chemistry Analyzer (Abbott Laboratories, Abbott Park, IL) and included alanine amino transferase (ALT), aspartate amino transferase (AST), gamma glutamyltransferase (GGT), and alkaline phosphatase (ALP) activities.
(§2) Frozen liver or jejunum were immediately added to 4 ml of TRIzol reagent (Invitrogen Life Technologies) and homogenized using a Polytron 300D homogenizer (Brinkman Instruments, Westbury, NY). […] Nucleic acid concentration was determined by OD 260 nm (Smart-Spec, Bio-Rad Laboratories, Hercules, CA), and RNA integrity was evaluated using an Agilent 2100 bioanalyzer (Agilent Technologies, Foster City, CA). […]

Cyp1a2 [2] = test: Cyp1a2 mRNA in rat small intestine (jejunum); type: in vivo; details: data not shown
Description: as §1, §2

rat Cyp2b1 = biological target: T1, rat Cyp2b1 (Rattus norvegicus, UniProt P00176); test: Recombinant rat Cyp phenotype profiling, 2B1; type: in vitro ADME; details: 60 min
T1 construct: purchased BD Gentest; host or cells: baculovirus infected insect cells
Description: (§3) Identification of the drug metabolizing enzymes (DMEs) of A-998679 was studied in cDNA expressed recombinant enzymes prepared from baculovirus infected insect cells over-expressing rat Cyp isoforms (BD Gentest, Woburn, MA) as listed in Table 2. Incubations were conducted in duplicate using Supersomes. The incubation mixture contained 100 pmol/ml of enzymes, except for Cyp1a1 (200 pmol/ml), 0.1 or 0.21 μM of [^3H]A-998679 in 100 mM phosphate buffer (pH 7.4). Reactions were initiated with the addition of NADPH at a final concentration of 1 mM and incubated at 37°C for 60 min. At the end of the incubation period, the incubations were terminated by the addition of acetonitrile/ethanol (50/50, v/v) solution. Insect control samples lacking expressed enzyme were used as negative control. The degree of metabolism of A-998679 was assessed by percent of parent remaining using the radio-HPLC method described below.
(§4) Radiolabeled components from the above assays were profiled following separation by HPLC with on line radioflow detector. The system consisted of an Agilent 1100 Series quaternary pump and autosampler connected to a Packard 500TR flow scintillation detector. The data were processed using the Radiomatic™ Flo-one® software v3.65. The scintillant (Perkin Elmer FLO-SCINT™ III) flow was maintained at 3 ml/min. […]

rat Cyp 2D1 = biological target: T2, rat Cyp 2D1 (Rattus norvegicus, UniProt P10633); test: Recombinant rat Cyp phenotype profiling, 2D1; type: in vitro ADME; details: 60 min
T2 construct: purchased BD Gentest; host or cells: baculovirus infected insect cells
Description: as §3, §4

T2 sequence (P10633 whole entry): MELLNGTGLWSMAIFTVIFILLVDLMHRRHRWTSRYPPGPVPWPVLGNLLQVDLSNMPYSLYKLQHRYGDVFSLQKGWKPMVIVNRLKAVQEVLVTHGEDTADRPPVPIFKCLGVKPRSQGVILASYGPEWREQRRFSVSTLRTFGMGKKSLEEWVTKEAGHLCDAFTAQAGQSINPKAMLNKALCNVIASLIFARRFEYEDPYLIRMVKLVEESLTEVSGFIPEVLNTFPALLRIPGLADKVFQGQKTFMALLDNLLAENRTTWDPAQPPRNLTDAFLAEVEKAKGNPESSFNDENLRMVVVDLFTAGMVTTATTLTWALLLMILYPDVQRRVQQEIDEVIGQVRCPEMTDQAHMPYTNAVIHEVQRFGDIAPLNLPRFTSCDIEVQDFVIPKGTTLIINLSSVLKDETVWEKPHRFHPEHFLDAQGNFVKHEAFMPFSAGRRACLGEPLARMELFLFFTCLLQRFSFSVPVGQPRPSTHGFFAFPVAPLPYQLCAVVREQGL
T1 sequence (P00176 whole entry): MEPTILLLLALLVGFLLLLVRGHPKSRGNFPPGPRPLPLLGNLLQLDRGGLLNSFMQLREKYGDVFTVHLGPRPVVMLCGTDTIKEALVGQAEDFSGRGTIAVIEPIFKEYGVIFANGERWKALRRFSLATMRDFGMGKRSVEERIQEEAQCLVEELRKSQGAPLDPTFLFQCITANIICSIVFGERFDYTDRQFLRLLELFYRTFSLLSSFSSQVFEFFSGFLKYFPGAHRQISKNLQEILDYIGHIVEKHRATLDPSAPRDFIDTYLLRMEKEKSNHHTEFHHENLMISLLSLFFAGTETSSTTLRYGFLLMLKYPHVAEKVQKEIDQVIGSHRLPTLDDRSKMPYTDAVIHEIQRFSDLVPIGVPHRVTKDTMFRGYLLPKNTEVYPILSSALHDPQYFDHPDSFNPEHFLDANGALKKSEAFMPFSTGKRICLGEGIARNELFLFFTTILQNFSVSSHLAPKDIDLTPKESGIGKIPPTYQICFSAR

`N#Cc1cccc(-c2noc(-c3cccnc3)n2)c1` [A-998679, 3-(5-pyridin-3-yl-1,2,4-oxadiazol-3-yl) benzonitrile] was tested, and the “CYP1A2 mRNA induction” value (CYP1A2 [1]) was “also observed”, the “Cyp1a1 mRNA expression in rat jejunum” value (Cyp1a1; 200 mg/kg) was “significantly decreased” and the “Cyp1a1 mRNA expression in rat jejunum” value (Cyp1a1; 30 and 100 mg/kg, high interindividual variability) was “increased”. The “Cyp1a2 mRNA levels in rat jejunum” value (Cyp1a2 [2]) was “unchanged”, the “% parent remaining” value (rat Cyp2b1; recombinant rat Cyp 2B1, 0.10 μM) was 87.0% and the “% parent remaining” value (rat Cyp2b1; recombinant rat Cyp 2B1, 0.21 μM) was 34.5%. The “% parent remaining” value (rat Cyp 2D1; recombinant rat Cyp 2D1, 0.10 μM) was 91.9% and the “% parent remaining” value (rat Cyp 2D1; recombinant rat Cyp 2D1, 0.21 μM) was 91.1%.
